Results from patent US20240325548A1, “DYNAMIC BIOACTIVE SCAFFOLDS AND THERAPEUTIC USES THEREOF AFTER CNS INJURY” (Northwestern University, priority 2021, published 2024).

Key:
[1] = Negative-stain TEM fiber width; assay type: physicochemical
Procedure: To prepare the negatively stained TEM specimen, 7 μL of PA sample solution (1 wt % PA prepared in 150 mM NaCl and 3 mM diluted 10 times in MilliQ water) was applied on the shiny side of a glow discharged grid (300 mesh copper with carbon film, Electron Microscopy Sciences), followed by rinsing three times with MilliQ water to remove the excess of salt. The grid was then stained with filtered 2 wt % uranyl acetate aqueous solution and dried in air. TEM imaging was carried out on a JEOL 1230 microscope with a LaB6 filament at 100 kV accelerating voltage, equipped with a Gatan 831 CCD camera. A cold finger was introduced for sample stabilization during imaging.

[2] = system: murine model of severe spinal cord injury (SCI); experiment: Angiogenesis at the site of SCI (DiI labelling, BrdU/CD31); assay type: in vivo, mouse
Procedure: All experiments were conducted at the Simpson Querrey Institute at Northwestern University. 182 CD1 mice (Charles River) were subjects of this study (N=38 Sham, N=38 IKVAV PA2 alone, N=38 IKVAV PA2+FGF2 PA1, N=38 IKVAV PA2+FGF2 PA2, N=12 IKVAV PA1, N=12 Backbone PA, N=6 IKVAV PA4). The age of animals used in the study was in the range of 10-16 weeks. 8 independent in vivo experiments were carried out (injury+PA injection) and each of the 8 experiments had animals of the exact same age which were injected with at least the 4 main treatment groups: Sham, IKVAV PA2 alone, IKVAV PA2+FGF2 PA1, and IKVAV PA2+FGF2 PA2. Animals were anesthetized using 2.5% isoflurane gas with oxygen. […]
PAs (dissolved in sterile NaCl 0.9% solution at 1 wt %) were injected 24 h after SCI using a glass capillary micropipette (Sutter Instruments, Novato, CA) (outer diameter, 100 m) coated with Sigmacote (Sigma-Aldrich) to reduce surface tension as described elsewhere (19). […] The micropipette was lowered to a depth of 750 m measured from the dorsal surface of the cord, and 4-6 μL of the diluted amphiphile solution was injected at 1 L/min. […]
To assess in vitro tubulogenesis and in vivo angiogenesis, an ImageJ (Fiji) script was established to automatically calculate 1) area fraction of blood vessels, 2) blood vessels length, and 3) number of branches. Images were processed, binarized and analyzed. […]

Substance: C16-A2G2E4GIKVAV [IKVAV PA2]
- average fiber width [1]: 10.6±0.1 nm
- newly formed blood vessels (number of BrdU+/CD31+ cells) ([2]; 12 weeks after injury): very modest but yet significantly increased
- vascular area fraction, vascular length, and branching ([2]; DiI-labelled vessels, transverse sections): did not differ significantly
